Patent publication US11572590B2, “Methods for evaluating tumor cell spheroids using 3D microfluidic cell culture device” (Dana-Farber Cancer Institute, Inc., priority 2017, dated 2023)
Like-named read-outs stand apart in the source and are kept apart here.

Assays:
Test in all cases: SelectScreen Kinase Profiling, single point inhibition and IC50 for off-target kinases
Format in all cases: biochemical
[1] = molecular target: off-target kinases (Homo sapiens, UniProt P10721, N822K); conditions: KIT N822K, LanthaScreen Binding
[2] = molecular target: T1, off-target kinases (Homo sapiens, UniProt O60285); conditions: NUAK1 (ARK5), ATP Km app, Adapta
T1 sequence (O60285 1-661): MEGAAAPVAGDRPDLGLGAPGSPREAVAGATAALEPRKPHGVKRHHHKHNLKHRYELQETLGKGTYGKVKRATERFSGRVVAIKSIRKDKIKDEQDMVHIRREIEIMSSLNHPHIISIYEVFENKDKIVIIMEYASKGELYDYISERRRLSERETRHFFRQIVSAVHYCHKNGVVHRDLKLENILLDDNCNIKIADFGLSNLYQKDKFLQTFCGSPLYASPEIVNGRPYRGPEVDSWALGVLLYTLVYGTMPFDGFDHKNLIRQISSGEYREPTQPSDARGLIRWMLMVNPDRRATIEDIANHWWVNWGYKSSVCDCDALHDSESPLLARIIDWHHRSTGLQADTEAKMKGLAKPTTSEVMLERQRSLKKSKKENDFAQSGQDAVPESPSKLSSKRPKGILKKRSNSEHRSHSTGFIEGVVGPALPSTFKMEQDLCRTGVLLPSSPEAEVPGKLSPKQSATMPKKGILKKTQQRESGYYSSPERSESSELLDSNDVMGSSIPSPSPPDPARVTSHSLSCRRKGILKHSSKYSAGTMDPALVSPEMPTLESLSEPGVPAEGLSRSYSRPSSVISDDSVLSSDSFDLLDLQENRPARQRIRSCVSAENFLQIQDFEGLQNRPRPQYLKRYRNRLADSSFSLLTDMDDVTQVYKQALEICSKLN

[3] = molecular target: off-target kinases (Homo sapiens, UniProt Q9H1R3); conditions: MYLK2 (skMLCK), ATP Km app, ZLYTE
Chain of off-target kinases (Homo sapiens, UniProt Q9H1R3) (Q9H1R3 whole entry): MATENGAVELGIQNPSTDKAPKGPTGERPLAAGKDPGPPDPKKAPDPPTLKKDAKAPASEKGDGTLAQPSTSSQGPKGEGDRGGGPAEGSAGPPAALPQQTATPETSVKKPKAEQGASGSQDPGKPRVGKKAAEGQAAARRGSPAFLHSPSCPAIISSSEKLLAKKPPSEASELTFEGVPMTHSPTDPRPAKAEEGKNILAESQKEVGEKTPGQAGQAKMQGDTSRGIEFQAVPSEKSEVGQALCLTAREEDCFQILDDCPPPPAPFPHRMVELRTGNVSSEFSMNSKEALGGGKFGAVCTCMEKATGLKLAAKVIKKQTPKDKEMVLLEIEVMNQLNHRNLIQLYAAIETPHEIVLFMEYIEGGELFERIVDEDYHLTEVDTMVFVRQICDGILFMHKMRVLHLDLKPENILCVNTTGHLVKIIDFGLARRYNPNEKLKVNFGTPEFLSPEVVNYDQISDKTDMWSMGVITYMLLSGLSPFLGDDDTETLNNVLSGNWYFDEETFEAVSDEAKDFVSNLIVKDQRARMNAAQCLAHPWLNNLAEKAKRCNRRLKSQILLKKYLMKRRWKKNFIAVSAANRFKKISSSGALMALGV

Chain of off-target kinases (Homo sapiens, UniProt P10721, N822K) (P10721 26-976 N822K): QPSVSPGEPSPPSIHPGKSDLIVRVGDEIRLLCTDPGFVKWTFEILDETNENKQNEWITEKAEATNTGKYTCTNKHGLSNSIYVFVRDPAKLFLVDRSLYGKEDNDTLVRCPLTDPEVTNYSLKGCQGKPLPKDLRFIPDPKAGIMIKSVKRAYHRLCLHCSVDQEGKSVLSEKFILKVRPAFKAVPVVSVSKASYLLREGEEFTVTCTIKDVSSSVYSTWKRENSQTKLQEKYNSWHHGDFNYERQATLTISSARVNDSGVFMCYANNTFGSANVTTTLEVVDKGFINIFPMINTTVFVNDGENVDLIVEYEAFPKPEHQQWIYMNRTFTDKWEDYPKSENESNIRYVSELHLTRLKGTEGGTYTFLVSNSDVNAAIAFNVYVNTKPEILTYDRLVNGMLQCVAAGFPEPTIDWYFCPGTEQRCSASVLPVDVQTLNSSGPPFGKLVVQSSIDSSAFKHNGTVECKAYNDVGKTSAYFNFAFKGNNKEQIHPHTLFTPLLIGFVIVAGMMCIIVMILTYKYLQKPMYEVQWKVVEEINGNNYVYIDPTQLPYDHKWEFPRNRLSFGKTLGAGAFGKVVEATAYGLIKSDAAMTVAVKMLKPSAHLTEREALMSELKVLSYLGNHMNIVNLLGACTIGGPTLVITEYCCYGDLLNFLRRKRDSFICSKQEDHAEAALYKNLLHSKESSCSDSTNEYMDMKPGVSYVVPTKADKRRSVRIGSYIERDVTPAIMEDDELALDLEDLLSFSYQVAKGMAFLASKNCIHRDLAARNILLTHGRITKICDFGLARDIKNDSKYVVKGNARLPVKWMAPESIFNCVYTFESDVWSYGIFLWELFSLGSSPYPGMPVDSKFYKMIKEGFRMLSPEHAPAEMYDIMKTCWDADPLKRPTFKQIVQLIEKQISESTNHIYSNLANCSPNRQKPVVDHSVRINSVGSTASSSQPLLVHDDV

N#Cc1cc(-c2ncnc(Nc3ccc(N4CCN(C5COC5)CC4)cc3)n2)ccc1OC1CCOCC1 [Compound 1, 5-(4-((4-(4-(oxetan-3-yl)piperazin-1-yl)phenyl)amino)-1,3,5-triazin-2-yl)-2-((tetrahydro-2H-pyran-4-yl)oxy)benzonitrile]
inhibition ([1]; read-out: % Inhibition 1): 66% | inhibition ([1]; read-out: % Inhibition 2): 67% | inhibition ([1]; read-out: % Inhibition Avg): 66% | inhibition ([2]; read-out: % Inhibition 1): 83% | inhibition ([2]; read-out: % Inhibition 2): 83% | inhibition ([2]; read-out: % Inhibition Avg): 83% | inhibition ([3]; read-out: % Inhibition 1): 65% | inhibition ([3]; read-out: % Inhibition 2): 60% | inhibition ([3]; read-out: % Inhibition Avg): 63%
